According to US20240041976A1, “COMPOSITION AND USE” (priority 2020, published 2024):
No end group written: not given here.

Columns and labels:
MRSA 43484 = test: AAMP assay and checkerboard synergy; assay type: cell-based, Staphylococcus aureus; conditions: MRSA 43484
Procedure: (§1) Antimicrobial activity was measured using the AAMP assay (Wiegand et al., 2008, Nat. Protoc., Vol. 3(2), p 163-175).
(§2) Synergy testing was done with a microtiter plate checkerboard assay as previously described (Orhan et al., 2005, J. Clin. Microbiol., Vol. 43(1), p 140-143). Briefly, equal amounts of antimicrobial A were applied on microtiter plate 1 in wells A1-H1 and then diluted two-fold to wells 2-12. Similarly, equal amounts of antimicrobial B were applied on microtiter plate 2 in wells A1-A12 and diluted two-fold in wells B-H. Volumes of 50 μl of antimicrobial A from each well of microtiter plate 1 were transferred into microtiter plate 3, except for wells H1-H12. Similarly, the same volumes were transferred from microtiter plate 2 into plate 3, except for wells A1-A8. A 100 μl volume of 25 times diluted ON bacterial culture of MRSA was transferred into each well of plate 3. A 50 μl volume of pure broth was added into each well in lines H1-H12 and A1-A8 which were used to estimate MIC values of pure substances (blank).
(§3) Three-component synergy was assessed by mixing the three components (100 μg of PenG, 50 μg of GarKS and 2.5 μg of MP1) into one well of a microtiter plate, compared with activity of individual antimicrobials on the same plate. The fractional inhibition concentration (FIC) which was used to define synergy was calculated as set forth in Example 1.

MRSA ATCC 33591-lux = test: AAMP assay and checkerboard synergy; assay type: cell-based, Staphylococcus aureus; conditions: MRSA ATCC 33591-lux
Procedure: as §1, §2, §3

MRSA USA-300 = test: AAMP assay and checkerboard synergy; assay type: cell-based, Staphylococcus aureus; conditions: MRSA USA-300
Procedure: as §1, §2, §3

S. aureus LMG3242 = test: AAMP assay (MIC), single components and formulation mixture; assay type: cell-based, Staphylococcus aureus; conditions: Staphylococcus aureus, LMG3242, 24 h; read-out: MIC, single component
Outline: (§4)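 FIC values defined synergy of a PenG/GarKS/MP1 mixture (100 μg, 50 μg, 2.5 μg per well) against single antimicrobials tested on the same plate, with MICs obtained by the AAMP assay.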

S. aureus LMG3263 = test: as above; assay type: cell-based, Staphylococcus aureus; conditions: Staphylococcus aureus, LMG3263, 24 h; read-out: MIC, single component
Outline: as §4

S. aureus LMG3264 = test: as above; assay type: cell-based, Staphylococcus aureus; conditions: Staphylococcus aureus, LMG3264, 24 h; read-out: MIC, single component
Outline: as §4

S. aureus LMG3266 = test: as above; assay type: cell-based, Staphylococcus aureus; conditions: Staphylococcus aureus, LMG3266, 24 h; read-out: MIC, single component
Outline: as §4

S. aureus LMG3314 = test: as above; assay type: cell-based, Staphylococcus aureus; conditions: Staphylococcus aureus, LMG3314, 24 h; read-out: MIC, single component
Outline: as §4

S. haemolyticus 4070 = test: microbe, parasite or virus in culture; conditions: for MIC of the component in combination: 4070
Procedure: (§5) Growth inhibition assays were performed in 96-well microtiter plates as described previously (Chi and Holo, 2018, supra). Briefly, 135 μl of TSB were dispensed in each well of a microtiter plate (according to the number of bacterial strains tested) except in the wells of the first row. The antimicrobials were diluted in TSB to working concentrations in a final volume of 285 μl and dispensed in the wells of the first row. The working concentrations were 100 μg/μl for garvicin KS, 10 μg/μl for micrococcin P1 and 1 mg/ml for penicillin G. From the first row, 150 μl of the antimicrobials were then serially diluted (two-fold dilutions) in a sequential fashion until the last row of the plate. Finally, 15 μl of a fresh O/N culture of each strain were added in the appropriate wells to reach a final volume of 150 μl in each well. The plates were then incubated at 37° C. for 24 h. The growth inhibition was expressed as minimum inhibitory concentration (MIC50), which refers to the minimum concentration of the antimicrobial needed to reduce at least 50% of the microbial growth compared to the untreated control. The MIC50 was assessed by optical density readings at 600 nm (O.D.600).
(§6) Synergistic interactions between antimicrobials were determined using the fractional inhibition concentration (FIC). The FIC values were calculated as follows: the sum of the FIC =FICa+FICb+FICc, where the FICa means MIC of A in combination/MIC of A alone, FICb means MIC of B in combination/MIC of B, and FICc means MIC of C in combination/MIC of C alone. Effects were considered as synergistic if FIC was ≤0.5 for two components mixture and ≤0.75 for three components mixture.
(§7) Bacteriocins and antimicrobial assays. […] These bacteriocins were all solubilized in 0.1% (vol/vol) trifluoracetic acid (TFA; Sigma-Aldrich). […] Cell growth inhibition assays and antimicrobial synergy determination was performed in line with Example 1.
(§8) To investigate whether there was synergy between the three bacteriocins (K1-EJ, GarKS and MP1), a checkboard antimicrobial assay was performed. The selected strains were treated for 5, 24 and 48 h with a range of concentrations of K1-EJ, GarKS and MP1 alone or in different combinations.

S. haemolyticus 4071 = test: microbe, parasite or virus in culture; conditions: for MIC of the component in combination: 4071
Procedure: as §5, §6, §7, §8

S. haemolyticus 4073 = test: microbe, parasite or virus in culture; conditions: for MIC of the component in combination: 4073
Procedure: as §5, §6, §7, §8

[1] = Staphylococcus aureus, 24 h, read-out: MIC, single antimicrobial

CC1(C)S[C@@H]2[C@H](NC(=O)Cc3ccccc3)C(=O)N2[C@H]1C(=O)O [Penicillin G]
MIC of GarKS in comb. antibiotic/GarKS/MP1 (MRSA 43484): 4 µg/mL
MIC of MP1 in comb. antibiotic/GarKS/MP1 (MRSA 43484): 0.08 µg/mL
MIC of MP1 in comb. with the labelled antibiotic (MRSA 43484): 0.3 µg/mL
MIC of the antibiotic in comb. with GarKS and MP1 (MRSA 43484): 8 µg/mL
MIC of the antibiotic in comb. with MP1 (MRSA 43484): 32 µg/mL
MIC of the antimicrobial in comb. with GarKS (MRSA 43484): 16 µg/mL
MIC (MRSA 43484; [1]): < 2500 µg/mL
MIC of GarKS in comb. antibiotic/GarKS/MP1 (MRSA ATCC 33591-lux): 4 µg/mL
MIC of MP1 in comb. antibiotic/GarKS/MP1 (MRSA ATCC 33591-lux): 0.08 µg/mL
MIC of MP1 in comb. with the labelled antibiotic (MRSA ATCC 33591-lux): 0.16 µg/mL
MIC of the antibiotic in comb. with GarKS and MP1 (MRSA ATCC 33591-lux): 8 µg/mL
MIC of the antibiotic in comb. with MP1 (MRSA ATCC 33591-lux): 16 µg/mL
MIC of the antimicrobial in comb. with GarKS (MRSA ATCC 33591-lux): 16 µg/mL
MIC (MRSA ATCC 33591-lux; [1]): < 2500 µg/mL
MIC of GarKS in comb. antibiotic/GarKS/MP1 (MRSA USA-300): 4 µg/mL
MIC of MP1 in comb. antibiotic/GarKS/MP1 (MRSA USA-300): 0.08 µg/mL
MIC of MP1 in comb. with the labelled antibiotic (MRSA USA-300): 0.3 µg/mL
MIC of the antibiotic in comb. with GarKS and MP1 (MRSA USA-300): 8 µg/mL
MIC of the antibiotic in comb. with MP1 (MRSA USA-300): 32 µg/mL
MIC of the antimicrobial in comb. with GarKS (MRSA USA-300): 16 µg/mL
MIC (MRSA USA-300; [1]): < 2500 µg/mL
MIC (S. aureus LMG3242): 0.24 µg/mL
MIC (S. aureus LMG3263): 125 µg/mL
MIC (S. aureus LMG3264): 4 µg/mL
MIC (S. aureus LMG3266): 64 µg/mL
MIC (S. aureus LMG3314): < 0.24 µg/mL

MKFKFNPTGTIVKKLTQYEINWYKQQYGRYPWERPVA [Hybrid K1-EJ]
MIC (S. haemolyticus 4070; 4070, 5 h): 0.78 µg/mL
MIC (S. haemolyticus 4070; 4070, 24 h): >100 µg/mL
MIC (S. haemolyticus 4070; 4070, 48 h): >100 µg/mL
MIC of the component in combination (S. haemolyticus 4070; 5 h, K1-EJ + GarKS): 0.72 µg/mL
MIC of the component in combination (S. haemolyticus 4070; 5 h, K1-EJ + GarKS + MP1): 0.32 µg/mL
MIC of the component in combination (S. haemolyticus 4070; 5 h, K1-EJ + MP1): 0.2 µg/mL
MIC of the component in combination (S. haemolyticus 4070; 24 h, K1-EJ + GarKS): 3.3 µg/mL
MIC of the component in combination (S. haemolyticus 4070; 24 h, K1-EJ + GarKS + MP1): 2.8 µg/mL
MIC of the component in combination (S. haemolyticus 4070; 24 h, K1-EJ + MP1): 2.8 µg/mL
MIC of the component in combination (S. haemolyticus 4070; 48 h, K1-EJ + GarKS): 6.3 µg/mL
MIC of the component in combination (S. haemolyticus 4070; 48 h, K1-EJ + GarKS + MP1): 5.8 µg/mL
MIC of the component in combination (S. haemolyticus 4070; 48 h, K1-EJ + MP1): 6 µg/mL
MIC (S. haemolyticus 4071; 4071, 5 h): 0.78 µg/mL
MIC (S. haemolyticus 4071; 4071, 24 h): >100 µg/mL
MIC (S. haemolyticus 4071; 4071, 48 h): >100 µg/mL
MIC of the component in combination (S. haemolyticus 4071; 5 h, K1-EJ + GarKS): 1.6 µg/mL
MIC of the component in combination (S. haemolyticus 4071; 5 h, K1-EJ + GarKS + MP1): 0.72 µg/mL
MIC of the component in combination (S. haemolyticus 4071; 5 h, K1-EJ + MP1): 0.42 µg/mL
MIC of the component in combination (S. haemolyticus 4071; 24 h, K1-EJ + GarKS): 12 µg/mL
MIC of the component in combination (S. haemolyticus 4071; 24 h, K1-EJ + GarKS + MP1): 1.6 µg/mL
MIC of the component in combination (S. haemolyticus 4071; 24 h, K1-EJ + MP1): 1.4 µg/mL
MIC of the component in combination (S. haemolyticus 4071; 48 h, K1-EJ + GarKS): 24 µg/mL
MIC of the component in combination (S. haemolyticus 4071; 48 h, K1-EJ + GarKS + MP1): 3.3 µg/mL
MIC of the component in combination (S. haemolyticus 4071; 48 h, K1-EJ + MP1): 3 µg/mL
MIC (S. haemolyticus 4073; 4073, 5 h): 0.78 µg/mL
MIC (S. haemolyticus 4073; 4073, 24 h): >100 µg/mL
MIC (S. haemolyticus 4073; 4073, 48 h): >100 µg/mL
MIC of the component in combination (S. haemolyticus 4073; 5 h, K1-EJ + GarKS): 1.7 µg/mL
MIC of the component in combination (S. haemolyticus 4073; 5 h, K1-EJ + GarKS + MP1): 0.33 µg/mL
MIC of the component in combination (S. haemolyticus 4073; 5 h, K1-EJ + MP1): 0.2 µg/mL
MIC of the component in combination (S. haemolyticus 4073; 24 h, K1-EJ + GarKS): 6.3 µg/mL
MIC of the component in combination (S. haemolyticus 4073; 24 h, K1-EJ + GarKS + MP1): 0.78 µg/mL
MIC of the component in combination (S. haemolyticus 4073; 24 h, K1-EJ + MP1): 0.36 µg/mL
MIC of the component in combination (S. haemolyticus 4073; 48 h, K1-EJ + GarKS): 12 µg/mL
MIC of the component in combination (S. haemolyticus 4073; 48 h, K1-EJ + GarKS + MP1): 1.6 µg/mL
MIC of the component in combination (S. haemolyticus 4073; 48 h, K1-EJ + MP1): 0.85 µg/mL
